Columns and labels:
[1] = system: SCID mice (C.B-17/lcrHsd-Prkcd); experiment: experimental colitis transfer model (CD45RBHigh cells injected into SCID mice); type: in vivo, mouse; conditions: 50 mg/kg oral gavage twice a week
Experimental: To study the application of miltefosine as an anti-inflammatory drug, miltefosine was tested in the experimental colitis transfer model. In this model SCID mice, lacking T and B lymphocytes, are injected with only effector T lymphocytes (CD4^+CD45RB^High) omitting regulatory T lymphocytes (CD4^+CD45RB^Low). The absence of the letter causes, over a period of two months, the development of chronic inflammation of the colon.
Mouse CD4 positive lymphocytes were isolated from the spleen of normal mice (Balb/c OlaHsd). The spleen was removed, forced through a cell strainer to obtain a single cell suspension. Erythrocytes were lysed by adding water, quickly followed by PBS. The remaining cells were enriched in CD4 positive cells by negative depletion using magnetic beads specific for B cell (anti-B220), macrophages (anti-Mac-1) and cytotoxic T lymphocytes (anti-CD8). The remaining cell were washed and labeled for CD4 (CD4-PerCP-Cy5) and CD45RB (CD45RB-FITC). Using a FACS sorter the cell were separated in CD4 cells expressing low levels of CD45RB (CD45RB^Low) and high levels of CD45RB (CD45RB^High).
To induce colitis, SCID mice (C.B-17/lcrHsd-Prkcd) were injected with 5·10^5 CD45RB^High cells.
The mice were divided in three groups, each group containing 10 mice. […] Group two and three both received only CD45RB^High cells and developed colitis. Only group three received miltefosine (50 mg/kg) via oral gavage. Treatment started two weeks after the start of the experiment and was given twice a week until the end of the experiment. The mice were weighted three times a week during the entire duration of the experiment.
Part of the colon of each mouse was embedded in paraffin, cut and stained with hematoxylin and eosin (HE). The pathology score takes in account epithelial cell hyperplasia, leukocyte infiltrations, loss of goblet cells, ulceration and cryptabscesses.

[2] = 50 mg/kg per treatment; reported in literature; cited from earlier work
human patients = conditions: high dosages; cited from earlier work

CCCCCCCCCCCCCCCCOP(=O)([O-])OCC[N+](C)(C)C [miltefosine, hexadecyl phosphocholine]
weight loss in two days time ([1]; after day 42): ten
average weight at the end of the experiment ([1]; between the groups): does not differ significantly
average weight of the group versus negative control group ([1]; till day 42): corresponded with the negative control group
effect on bodyweight [2]: can affect bodyweight negatively
side effects in human patients (human patients): nausea and vomiting

From patent US20160067269A1, “Miltefosin Or Perifosin For Use In The Treatment of IBD” (ACADEMISCH MEDISCH CENTRUM, priority 2013, published 2016)
